Data published in patent publication US20230322865A1 (priority 2020, published 2023).
Peptide text beside a SMILES is read from it. * marks the point of attachment. Propyl(2R-PamO,3-PamO) = CCCCCCCCCCCCCCCC(=O)OC[C@H](C*)OC(=O)CCCCCCCCCCCCCCC; Palmitoyl = CCCCCCCCCCCCCCCC(=O)*

How the values were obtained:
[1] = tested on: T-cells in PBMC of patients recovered from SARS-CoV-2 infection; format: cell-based, human
[2] = tested on: T-cells of donors never exposed to SARS-CoV-2; format: cell-based, human; details: IFN-γ ELISPOT, unexposed donors
peptide-specific T-cells = assay: Self-vaccination of a healthy volunteer with SARS-CoV-2-derived peptides, XS15 and Montanide; format: in vivo, human
Excerpt: Development of antibody-dependent enhancement (ADE) antibodies has been identified as potential risk for infected patients after vaccination approaches; see Graham B S. Rapid COVID-19 vaccine development. Science. 2020. In contrast to other classical vaccines aiming to induce an antibody-response to prevent viral infections the CoVac-1 vaccine is designed to induce SARS-CoV-2 specific T-cells. […] Therefore, there is compared to other vaccine approaches only minimal risk of induction of ADE antibodies by the CoVac-1 vaccine.
A more current report of self-vaccination of the same individual includes the administration of SARS-CoV-2-derived peptides performed in March 2020. Here, the self-experimenting healthy volunteer used eight SARS-CoV-2-derived peptides: five predicted to bind to HLA class I molecules (CD8 peptides) and three predicted to bind to HLA-DR molecules (CD4 peptides, including two peptides from the CoVac-1 vaccine). […] About 3 weeks after a single vaccination, using a vaccine containing the mentioned synthetic peptides, Montanide and containing 50 μg XS15, strong vaccine-induced CD4^+ T-cell responses against all […] HLA-DR peptides and against the recall CMV epitope could be detected. No T-cell responses against the five predicted SARS-CoV-2 HLA class I peptides could be detected by ex vivo Interferon-γ ELISpot assay. […]

[3] = XS15 emulsified in Montanide ISA 51 VG
[4] = cited from earlier work
[5] = tested on: peptide vaccine-specific T-cells; format: in vivo, human; details: after one injection, preliminary

## ASWFTALTQHGKEDL (SARS-CoV-2) [SEQ ID NO: 3, SARS-CoV-2 nucleocapsid-derived HLA-DR peptide]
[1]
  SARS cohort frequency [%]: 59%
  SARS cohort pos/tested: 13/22
[2]
  PRE cohort frequency [%]: 6%
  PRE cohort pos/tested: 1/18

## CC(C)C[C@H](NC(=O)[C@@H](NC(=O)[C@H](CO)NC(=O)[C@H](Cc1ccc(O)cc1)NC(=O)[C@H](CC(=O)O)NC(=O)[C@H](C)NC(=O)[C@@H](N)C(C)C)C(C)C)C(=O)N[C@@H](Cc1ccc(O)cc1)C(=O)N[C@@H](CC(N)=O)C(=O)N[C@@H](CO)C(=O)N[C@@H](C)C(=O)N[C@@H](CO)C(=O)N[C@@H](Cc1ccccc1)C(=O)N[C@@H](CO)C(=O)N[C@H](C(=O)O)[C@@H](C)O [SEQ ID NO: 6]
peptide-specific T-cells
  antibody induction against vaccine peptide: no antibody induction was observed

## RWYFYYLGTGPEAGL (SARS-CoV-2) [SEQ ID NO: 2, SARS-CoV-2 nucleocapsid-derived HLA-DR peptide]
[1]
  SARS cohort frequency [%]: 73%
  SARS cohort pos/tested: 16/22
[2]
  PRE cohort frequency [%]: 6%
  PRE cohort pos/tested: 1/18

## ITRFQTLLALHRSYL [SEQ ID NO: 7]
[1]
  SARS cohort frequency [%]: 55%
  SARS cohort pos/tested: 12/22
[2]
  PRE cohort frequency [%]: 5%
  PRE cohort pos/tested: 1/20

## LLLLDRLNQLESKMS (SARS-CoV-2) [SEQ ID NO: 4, SARS-CoV-2 nucleocapsid-derived HLA-DR peptide]
[1]
  SARS cohort frequency [%]: 64%
  SARS cohort pos/tested: 14/22
[2]
  PRE cohort frequency [%]: 6%
  PRE cohort pos/tested: 1/17

## ASAFFGMSRIGMEVT (SARS-CoV-2) [SEQ ID NO: 5, SARS-CoV-2 nucleocapsid-derived HLA-DR peptide]
[1]
  SARS cohort frequency [%]: 52%
  SARS cohort pos/tested: 12/23
[2]
  PRE cohort frequency [%]: 6%
  PRE cohort pos/tested: 1/18

## CCCCCCCCCCCCCCCC(=O)N[C@@H](CSC[C@@H](COC(=O)CCCCCCCCCCCCCCC)OC(=O)CCCCCCCCCCCCCCC)C(=O)NCC(=O)N[C@@H](CC(=O)O)C(=O)N1CCC[C@H]1C(=O)N[C@@H](CCCCN)C(=O)N[C@@H](Cc1c[nH]cn1)C(=O)N1CCC[C@H]1C(=O)N[C@@H](CCCCN)C(=O)N[C@@H](CO)C(=O)N[C@@H](Cc1ccccc1)C(=O)O [XS15] (Palmitoyl-C(Propyl(2R-PamO,3-PamO))GDPKHPKSF-OH; C-terminus assumed)
[3]
  Persistence of induced immune responses: more than 1.5 years
  Persistence of vaccinated peptides in granuloma on vaccination site: at least 7 weeks
[4]; 80 μg XS15, days 17 and 41
  Granuloma volume at injection site (ultrasound): about 8 ml
[4]; single vaccination
  Ex vivo T-cell responses in peripheral blood detectable: more than one year
[5]
  Induction of T-cell responses against vaccine peptides, % of healthy volunteer (HV) and patients: 100%

## KDGIIWVATEGALNT (SARS-CoV-2) [SEQ ID NO: 1, SARS-CoV-2 nucleocapsid-derived HLA-DR peptide]
[1]
  SARS cohort frequency [%]: 91%
  SARS cohort pos/tested: 20/22
[2]
  PRE cohort frequency [%]: 44%
  PRE cohort pos/tested: 8/18

## SKWYIRVGARKSAPL [SEQ ID NO: 10]
[1]
  SARS cohort frequency [%]: 68%
  SARS cohort pos/tested: 15/22
[2]
  PRE cohort frequency [%]: 25%
  PRE cohort pos/tested: 4/16

## FYVYSRVKNLNSSRV (SARS-CoV-2) [SEQ ID NO: 9, SARS-CoV-2 envelope protein-derived HLA-DR peptide]
[1]
  SARS cohort frequency [%]: 50%
  SARS cohort pos/tested: 11/22
[2]
  PRE cohort frequency [%]: 11%
  PRE cohort pos/tested: 2/19
